Experimental data as given in patent US9428493B2, “Schweinfurthin analogues” (University of Iowa Research Foundation, priority 2012, dated 2016).

Test system: efflux pump
Test: efflux pump substrate activity
Assay type: in vitro ADME
From the text: For the treatment of certain diseases, it may be beneficial to have a therapeutic agent that is not an efflux pump substrate. […] In one embodiment of the invention R^2 is (C1-C15)alkyl or (C2-C15) alkenyl. In one embodiment of the invention R^4 is (C1-C15)alkyl or (C2-C15)alkenyl. In one embodiment of the invention R^4 is (C1-C6)alkyl.

Compound	efflux pump substrate
COc1cc(/C=C/c2cc(OC)c3cc[nH]c3c2)cc2c1O[C@]1(C)CC[C@@H](O)C(C)(C)[C@H]1C2 [Compound 4, reference compound]	found to be an efflux pump substrate
COc1cc(/C=C/c2cc(O)c3ccn(C)c3c2)cc2c1O[C@]1(C)CC[C@@H](O)C(C)(C)[C@H]1C2 [Compound 7]	diminished activity as efflux pump substrates compared to Compound 4
COc1cc(/C=C/c2cc(O)c3c(c2)C[C@@H]2C(C)(C)[C@H](O)CC[C@@]2(C)O3)cc2c1ccn2C [Compound 9]	diminished activity as efflux pump substrates compared to Compound 4
COc1cc(/C=C/c2cc(O)c3c(CC=C(C)C)c[nH]c3c2)cc2c1O[C@]1(C)CC[C@@H](O)C(C)(C)[C@H]1C2 [Compound 10]	diminished activity as efflux pump substrates compared to Compound 4
